The text below walks through data of ChEMBL document CHEMBL4340507, “Identification of an indol-based multi-target kinase inhibitor through phenotype screening and target fishing using inverse virtual screening approach” (Eur J Med Chem, 2019).

Data set [1] concerns the target Platelet-derived growth factor receptor alpha (Homo sapiens, UniProt P16234). In words: Inhibition of recombinant human wild-type N-terminal GST-His6-fused PDGFR-alpha C-terminal domain (Q551 to L1089 residues) expressed in Sf9 insect cells using TRK-C derived peptide as substrate measured after 60 mins in presence of [gamma-33P]-ATP by scintillation counting method.

Data set [2] deals with HeLa. In words: Down regulation of ERK expression in human HeLa cells at 0.1 to 0.6 uM after 24 hrs by FACS analysis. It counts as functional, cell-based. For orientation: A flow cytometer gives signals particle by particle.
Data set [3] addresses Dual specificity mitogen-activated protein kinase kinase 1 (Homo sapiens, UniProt Q02750). In words: Inhibition of recombinant human wild-type full-length MEK1 (M1 to V393 residues) expressed in Sf9 insect cells using ERK2-K54R as substrate measured after 60 mins in presence of [gamma-33P]-ATP by scintillation counting method.
Data set [4] has as its system IEC-6. Briefly: Cell cycle arrest in rat IEC-6 cells assessed as decrease in accumulation at G2-phase at 0.1 to 0.6 uM after 24 hrs by propidium iodide staining-based FACS analysis. It counts as ADME. Particulars: iec-6, 24 h.
Data set [5] deals with Mitogen-activated protein kinase 3 (Homo sapiens, UniProt P27361). In words: Inhibition of recombinant human full-length N-terminal GST-His6 fused ERK1 (M1 to P379 residues) expressed in Escherichia coli using RBER-CHKtide as substrate measured after 60 mins in presence of [gamma-33P]-ATP by scintillation counting method.
Chain of Mitogen-activated protein kinase 3 (P27361 whole entry, the tested form may be a part): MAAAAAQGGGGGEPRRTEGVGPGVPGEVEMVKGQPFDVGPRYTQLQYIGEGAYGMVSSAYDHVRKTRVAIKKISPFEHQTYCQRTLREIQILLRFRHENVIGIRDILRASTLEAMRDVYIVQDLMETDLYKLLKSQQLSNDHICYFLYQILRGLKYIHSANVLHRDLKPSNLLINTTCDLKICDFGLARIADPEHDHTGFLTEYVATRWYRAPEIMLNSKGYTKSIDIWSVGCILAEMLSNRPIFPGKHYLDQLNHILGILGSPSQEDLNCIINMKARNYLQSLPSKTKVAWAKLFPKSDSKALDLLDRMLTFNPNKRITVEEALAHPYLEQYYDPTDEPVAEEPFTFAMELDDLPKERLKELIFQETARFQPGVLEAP
Data set [6] addresses High affinity nerve growth factor receptor (Homo sapiens, UniProt P04629). In words: Inhibition of recombinant human wild-type N-terminal GST-His6-fused TRKA C-terminal domain (G443 to G796 residues) expressed in Sf9 insect cells using TRK-C derived peptide as substrate measured after 60 mins in presence of [gamma-33P]-ATP by scintillation counting method.
In data set [7] the test system is IEC-6. Briefly: Cell cycle arrest in rat IEC-6 cells assessed as increase in accumulation at S phase at 0.1 to 0.6 uM after 24 hrs by propidium iodide staining based FACS analysis. To be noted: iec-6, 24 h. It counts as ADME.
Data set [8] deals with Fibroblast growth factor receptor 3 (Homo sapiens, UniProt P22607). In words: Inhibition of recombinant human wild-type N-terminal GST-His6-fused FGFR3 C-terminal domain (R397 to T806 residues) expressed in Sf9 insect cells using TRK-C derived peptide as substrate measured after 60 mins in presence of [gamma-33P]-ATP by scintillation counting method.
Chain of Fibroblast growth factor receptor 3 (P22607 whole entry, the tested form may be a part): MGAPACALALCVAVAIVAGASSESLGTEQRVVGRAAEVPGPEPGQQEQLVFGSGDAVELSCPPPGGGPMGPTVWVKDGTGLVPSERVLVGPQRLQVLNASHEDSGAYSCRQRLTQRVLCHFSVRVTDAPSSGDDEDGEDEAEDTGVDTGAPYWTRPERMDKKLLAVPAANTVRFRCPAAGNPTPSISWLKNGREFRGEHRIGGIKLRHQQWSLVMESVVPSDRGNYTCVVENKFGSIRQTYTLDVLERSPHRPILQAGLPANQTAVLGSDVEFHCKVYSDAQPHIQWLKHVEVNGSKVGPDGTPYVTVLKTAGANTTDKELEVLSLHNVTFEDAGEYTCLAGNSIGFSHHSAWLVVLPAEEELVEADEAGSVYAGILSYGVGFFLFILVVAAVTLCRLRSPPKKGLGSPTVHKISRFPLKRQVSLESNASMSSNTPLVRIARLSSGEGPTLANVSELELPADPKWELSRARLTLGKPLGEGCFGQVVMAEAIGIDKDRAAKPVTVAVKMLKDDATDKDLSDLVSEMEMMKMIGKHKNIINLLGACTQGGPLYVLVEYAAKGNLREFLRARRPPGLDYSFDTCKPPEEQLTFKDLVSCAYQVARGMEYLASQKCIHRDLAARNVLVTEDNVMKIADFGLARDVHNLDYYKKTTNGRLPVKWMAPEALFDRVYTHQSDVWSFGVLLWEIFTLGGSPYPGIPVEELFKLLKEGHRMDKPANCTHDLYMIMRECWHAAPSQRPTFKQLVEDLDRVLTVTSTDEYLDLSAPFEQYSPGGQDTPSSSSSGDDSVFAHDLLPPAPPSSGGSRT
Data set [9] has as its system HeLa. Briefly: Antiproliferative activity against human HeLa cells assessed as decrease in cell viability measured after 72 hrs by MTT assay. It counts as functional, cell-based. Background: Tetrazolium dyes change colour on reduction, which living cells bring about.
Data set [10] deals with Casein kinase II subunit alpha (Homo sapiens, UniProt P68400). Briefly: Inhibition of recombinant human full-length N-terminal GST-fused CK2-alpha1 (M1 to Q391 residues) expressed in Sf9 insect cells using casein as substrate measured after 60 mins in presence of [gamma-33P]-ATP by scintillation counting method.
Chain of Casein kinase II subunit alpha (P68400 whole entry, the tested form may be a part): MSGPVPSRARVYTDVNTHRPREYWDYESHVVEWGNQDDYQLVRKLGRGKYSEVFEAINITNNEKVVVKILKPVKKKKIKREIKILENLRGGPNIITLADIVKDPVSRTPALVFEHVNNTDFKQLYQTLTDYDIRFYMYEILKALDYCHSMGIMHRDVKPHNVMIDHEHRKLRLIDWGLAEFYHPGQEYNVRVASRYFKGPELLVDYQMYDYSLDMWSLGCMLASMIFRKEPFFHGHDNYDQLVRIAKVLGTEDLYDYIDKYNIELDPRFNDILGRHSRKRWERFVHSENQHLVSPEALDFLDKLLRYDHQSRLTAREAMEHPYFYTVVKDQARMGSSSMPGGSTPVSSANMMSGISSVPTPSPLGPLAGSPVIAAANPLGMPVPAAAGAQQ
The subject of data set [11] is IEC-6. In words: Down regulation of ERK expression in rat IEC-6 cells at 0.1 to 0.6 uM after 24 hrs by FACS analysis. To be noted: iec-6, 24 h. Format: ADME, cell-based.
The target in data set [12] is Mitogen-activated protein kinase kinase kinase 10 (Homo sapiens, UniProt Q02779). In words: Inhibition of recombinant human MAP3K10 measured after 60 mins in presence of [gamma-33P]-ATP by scintillation counting method.
Chain of Mitogen-activated protein kinase kinase kinase 10 (Q02779 whole entry): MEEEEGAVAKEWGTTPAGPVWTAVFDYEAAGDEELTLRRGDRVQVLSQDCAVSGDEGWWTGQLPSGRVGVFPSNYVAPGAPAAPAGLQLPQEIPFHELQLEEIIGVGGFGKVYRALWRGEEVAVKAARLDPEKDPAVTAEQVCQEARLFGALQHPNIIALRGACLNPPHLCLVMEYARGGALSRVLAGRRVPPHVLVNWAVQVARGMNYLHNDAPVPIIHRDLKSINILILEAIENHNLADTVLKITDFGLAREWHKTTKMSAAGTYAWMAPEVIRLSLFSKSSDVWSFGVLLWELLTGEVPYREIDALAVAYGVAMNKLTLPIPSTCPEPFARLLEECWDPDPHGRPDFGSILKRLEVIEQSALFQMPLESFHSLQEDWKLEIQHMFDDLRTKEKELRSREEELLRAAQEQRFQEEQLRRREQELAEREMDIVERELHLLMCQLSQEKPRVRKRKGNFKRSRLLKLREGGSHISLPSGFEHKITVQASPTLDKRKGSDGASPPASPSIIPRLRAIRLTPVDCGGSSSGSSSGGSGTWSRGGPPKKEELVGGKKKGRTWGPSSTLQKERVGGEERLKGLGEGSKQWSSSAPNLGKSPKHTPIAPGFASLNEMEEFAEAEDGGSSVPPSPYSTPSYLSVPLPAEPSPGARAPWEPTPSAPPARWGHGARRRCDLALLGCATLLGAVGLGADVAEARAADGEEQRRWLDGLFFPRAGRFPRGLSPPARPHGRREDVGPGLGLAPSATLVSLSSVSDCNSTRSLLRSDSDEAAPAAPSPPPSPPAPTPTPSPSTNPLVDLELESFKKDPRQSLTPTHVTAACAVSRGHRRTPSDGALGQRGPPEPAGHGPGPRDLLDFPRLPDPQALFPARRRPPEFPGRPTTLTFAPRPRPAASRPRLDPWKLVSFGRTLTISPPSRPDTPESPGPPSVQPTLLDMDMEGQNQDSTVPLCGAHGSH

Calls of active or inactive are those of the source. No cut-off for these calls is given here.

Chain of Dual specificity mitogen-activated protein kinase kinase 1 (Q02750 whole entry, the tested form may be a part): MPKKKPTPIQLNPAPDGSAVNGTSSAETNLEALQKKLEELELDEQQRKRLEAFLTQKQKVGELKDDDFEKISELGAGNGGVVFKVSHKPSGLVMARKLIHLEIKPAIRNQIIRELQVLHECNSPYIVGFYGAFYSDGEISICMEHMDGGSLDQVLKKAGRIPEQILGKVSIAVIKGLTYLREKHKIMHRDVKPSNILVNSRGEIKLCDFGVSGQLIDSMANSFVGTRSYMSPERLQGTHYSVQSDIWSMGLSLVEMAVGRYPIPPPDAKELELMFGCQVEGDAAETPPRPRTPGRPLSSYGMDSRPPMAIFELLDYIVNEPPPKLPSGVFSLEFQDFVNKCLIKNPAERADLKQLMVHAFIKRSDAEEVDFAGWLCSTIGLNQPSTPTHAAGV
Chain of High affinity nerve growth factor receptor (P04629 whole entry, the tested form may be a part): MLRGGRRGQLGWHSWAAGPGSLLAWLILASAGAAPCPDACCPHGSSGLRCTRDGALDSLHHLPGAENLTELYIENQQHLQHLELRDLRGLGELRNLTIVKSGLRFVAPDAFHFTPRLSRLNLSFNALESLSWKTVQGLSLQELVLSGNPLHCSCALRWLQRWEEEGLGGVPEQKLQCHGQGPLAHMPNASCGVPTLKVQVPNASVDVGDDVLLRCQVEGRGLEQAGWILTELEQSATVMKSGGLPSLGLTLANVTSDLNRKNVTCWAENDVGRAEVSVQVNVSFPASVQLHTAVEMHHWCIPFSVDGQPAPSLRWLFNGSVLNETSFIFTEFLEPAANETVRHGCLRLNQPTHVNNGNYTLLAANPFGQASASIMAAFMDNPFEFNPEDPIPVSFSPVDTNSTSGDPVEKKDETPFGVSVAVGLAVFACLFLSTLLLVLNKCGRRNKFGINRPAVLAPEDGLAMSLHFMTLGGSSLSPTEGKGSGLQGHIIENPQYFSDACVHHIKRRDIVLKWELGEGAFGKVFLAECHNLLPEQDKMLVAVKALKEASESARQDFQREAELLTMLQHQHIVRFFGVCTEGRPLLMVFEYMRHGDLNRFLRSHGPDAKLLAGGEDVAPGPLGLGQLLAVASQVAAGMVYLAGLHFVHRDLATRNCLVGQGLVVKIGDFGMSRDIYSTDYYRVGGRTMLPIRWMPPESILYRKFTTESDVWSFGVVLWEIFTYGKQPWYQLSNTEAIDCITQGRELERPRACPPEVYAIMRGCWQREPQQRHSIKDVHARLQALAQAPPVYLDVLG
Chain of Platelet-derived growth factor receptor alpha (P16234 whole entry, the tested form may be a part): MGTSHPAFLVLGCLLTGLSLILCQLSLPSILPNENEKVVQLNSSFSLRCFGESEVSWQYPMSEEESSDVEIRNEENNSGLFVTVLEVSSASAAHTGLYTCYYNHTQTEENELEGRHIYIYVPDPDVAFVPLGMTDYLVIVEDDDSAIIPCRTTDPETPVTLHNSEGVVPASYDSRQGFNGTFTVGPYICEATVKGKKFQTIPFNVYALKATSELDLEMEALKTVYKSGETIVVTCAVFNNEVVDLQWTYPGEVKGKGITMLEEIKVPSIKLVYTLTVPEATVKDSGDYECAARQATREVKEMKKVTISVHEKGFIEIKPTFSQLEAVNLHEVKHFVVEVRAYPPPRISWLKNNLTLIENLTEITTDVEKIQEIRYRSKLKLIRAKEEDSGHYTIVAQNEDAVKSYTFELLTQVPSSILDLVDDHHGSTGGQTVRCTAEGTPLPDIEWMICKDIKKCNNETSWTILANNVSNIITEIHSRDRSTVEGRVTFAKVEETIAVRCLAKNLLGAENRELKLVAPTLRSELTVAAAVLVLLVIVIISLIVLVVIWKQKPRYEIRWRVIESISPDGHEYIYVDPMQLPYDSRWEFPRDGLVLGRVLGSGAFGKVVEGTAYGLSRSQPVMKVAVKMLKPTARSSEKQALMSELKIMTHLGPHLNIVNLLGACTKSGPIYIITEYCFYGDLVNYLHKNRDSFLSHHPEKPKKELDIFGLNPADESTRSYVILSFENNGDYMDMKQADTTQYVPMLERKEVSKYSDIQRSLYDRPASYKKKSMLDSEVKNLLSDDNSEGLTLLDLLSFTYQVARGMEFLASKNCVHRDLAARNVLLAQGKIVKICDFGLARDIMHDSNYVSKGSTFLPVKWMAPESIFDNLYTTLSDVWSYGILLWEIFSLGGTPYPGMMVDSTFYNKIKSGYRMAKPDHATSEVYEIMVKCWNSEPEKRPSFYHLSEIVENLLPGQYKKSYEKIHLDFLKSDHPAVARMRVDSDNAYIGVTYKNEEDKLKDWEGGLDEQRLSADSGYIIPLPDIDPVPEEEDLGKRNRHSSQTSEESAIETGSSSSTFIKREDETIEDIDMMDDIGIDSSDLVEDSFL

The term IC50 denotes the concentration needed to halve the response being measured. As to `CN(CCc1ccc(-c2ccccc2)cc1)Cc1cn(C)c2ccc(C(=O)Nc3ccc(F)cc3)cc12`, the IC50 was 48 µM in data set [1]; greater than 100 µM in [3]; 65 µM in [5]; 16 µM in data set [6]; 6.3 µM in data set [8]; 0.33 µM in the data set on HeLa [9]. Also, the IC50 in [10] was greater than 100 µM; in data set [12], 18 µM. Also, in the data set on HeLa [2], the outcome was Active. Besides, the Activity result with IEC-6 [4] was “Toxic”; in the data set on IEC-6 [7] it was “Toxic”; with IEC-6 [11], “Non-Toxic”.
